Assay results from ChEMBL document CHEMBL1132968, “Substituent effects on the antibacterial activity of nitrogen-carbon-linked (azolylphenyl)oxazolidinones with expanded activity against the fastidious gram-negative organisms Haemophilus influenzae and Moraxella catarrhalis” (2000).
In brackets after ≈: the same amount, converted by molar mass.

Experiments:
Type in all cases: functional
Haemophilus influenzae = experiment: Inhibitory activity against Haemophilus influenzae UC30063
Moraxella catarrhalis = experiment: Inhibitory activity against Moraxella catarrhalis UC30610
Streptococcus pneumoniae = experiment: Inhibitory activity against Streptococcus pneumoniae UC9912
[1] = test system: Staphylococcus epidermidis; experiment: Inhibitory activity against Methicillin-resistant Staphylococcus epidermidis UC12084
Enterococcus faecalis = experiment: Inhibitory activity against Enterococcus faecalis UC9217
Staphylococcus aureus [2] = experiment: Inhibitory activity against Methicillin-susceptible Staphylococcus aureus UC9213
Staphylococcus aureus [3] = experiment: Inhibitory activity against Methicillin-resistant Staphylococcus aureus UC6685

Compound | MIC (Haemophilus influenzae) [µg/mL] | MIC (Moraxella catarrhalis) [µg/mL] | MIC (Streptococcus pneumoniae) [µg/mL] | MIC [1] [µg/mL] | MIC (Enterococcus faecalis) [µg/mL] | MIC (Staphylococcus aureus [2]) [µg/mL] | MIC (Staphylococcus aureus [3]) [µg/mL]
CC(=O)NC[C@H]1CN(c2ccc(-n3ccc(NS(C)(=O)=O)n3)c(F)c2)C(=O)O1 | > 16 | > 16 | 4 (≈ 9.72 µM) | 4 (≈ 9.72 µM) | > 16 | > 16 | 
CC(=O)NC[C@H]1CN(c2ccc(-n3ncnn3)c(F)c2)C(=O)O1 | 8 (≈ 25 µM) | 8 (≈ 25 µM) | 0.5 (≈ 1.56 µM) | 1 (≈ 3.12 µM) | 1 (≈ 3.12 µM) | 2 (≈ 6.24 µM) | 2 (≈ 6.24 µM)
CC(=O)NC[C@H]1CN(c2ccc(-n3cc(C#C[Si](C)(C)C)cn3)c(F)c2)C(=O)O1 | > 16 | > 16 | 2 (≈ 4.82 µM) | 2 (≈ 4.82 µM) | 8 (≈ 19.3 µM) | 4 (≈ 9.65 µM) | 4 (≈ 9.65 µM)
CC(=O)NC[C@H]1CN(c2ccc(-n3ccc(CCCO)c3)c(F)c2)C(=O)O1 | > 16 | 8 (≈ 21.3 µM) | 0.5 (≈ 1.33 µM) | 1 (≈ 2.66 µM) | 2 (≈ 5.33 µM) | 4 (≈ 10.7 µM) | 4 (≈ 10.7 µM)
CC(=O)NC[C@H]1CN(c2ccc(-n3ccc(C)n3)c(F)c2)C(=O)O1 | > 16 | 16 (≈ 48.1 µM) | 1 (≈ 3.01 µM) | 1 (≈ 3.01 µM) | 4 (≈ 12 µM) | 4 (≈ 12 µM) | 4 (≈ 12 µM)
CC(=O)NC[C@H]1CN(c2ccc(-n3nnc(/C=N/O)n3)c(F)c2)C(=O)O1 | 16 (≈ 44 µM) | 8 (≈ 22 µM) | 0.5 (≈ 1.38 µM) | 1 (≈ 2.75 µM) | 4 (≈ 11 µM) | 4 (≈ 11 µM) | 4 (≈ 11 µM)
CC(=O)NC[C@H]1CN(c2ccc(-n3ccc(NC(=O)CO)n3)c(F)c2)C(=O)O1 | > 16 | > 16 | 1 (≈ 2.56 µM) | 4 (≈ 10.2 µM) | 8 (≈ 20.4 µM) | 16 (≈ 40.9 µM) | 16 (≈ 40.9 µM)
CC(=O)NC[C@H]1CN(c2ccc(-n3ccc(C#N)n3)c(F)c2)C(=O)O1 | 16 (≈ 46.6 µM) | 8 (≈ 23.3 µM) | 0.5 (≈ 1.46 µM) | 0.5 (≈ 1.46 µM) | 2 (≈ 5.83 µM) | 1 (≈ 2.91 µM) | 1 (≈ 2.91 µM)
CC(=O)NC[C@H]1CN(c2ccc(-n3ccc(C(N)=O)c3)c(F)c2)C(=O)O1 | > 16 | > 16 | 0.25 (≈ 0.694 µM) | 1 (≈ 2.78 µM) | 4 (≈ 11.1 µM) | 16 (≈ 44.4 µM) | 8 (≈ 22.2 µM)
CC(=O)NC[C@H]1CN(c2ccc(-n3ccc(NC(=O)OC(C)(C)C)n3)c(F)c2)C(=O)O1 | > 16 | 8 (≈ 18.5 µM) | 0.5 (≈ 1.15 µM) | 2 (≈ 4.61 µM) | 2 (≈ 4.61 µM) | 4 (≈ 9.23 µM) | 2 (≈ 4.61 µM)
CC(=O)NC[C@H]1CN(c2ccc(-n3cc(/C=N/O)nn3)c(F)c2)C(=O)O1 | > 16 | 8 (≈ 22.1 µM) | 0.5 (≈ 1.38 µM) | 1 (≈ 2.76 µM) | 8 (≈ 22.1 µM) | 8 (≈ 22.1 µM) | 2 (≈ 5.52 µM)
CC(=O)NC[C@H]1CN(c2ccc(-n3nnc(C#N)n3)c(F)c2)C(=O)O1 | 16 (≈ 46.3 µM) | 4 (≈ 11.6 µM) | 0.5 (≈ 1.45 µM) | 0.5 (≈ 1.45 µM) | 2 (≈ 5.79 µM) | 2 (≈ 5.79 µM) | 1 (≈ 2.9 µM)
CC(=O)NC[C@H]1CN(c2ccc(-n3nnc(C=O)n3)c(F)c2)C(=O)O1 | 16 (≈ 45.9 µM) | 16 (≈ 45.9 µM) | 1 (≈ 2.87 µM) | 2 (≈ 5.74 µM) | 16 (≈ 45.9 µM) | 8 (≈ 23 µM) | 4 (≈ 11.5 µM)
CC(=O)NC[C@H]1CN(c2ccc(-n3cc(NC(=O)OC(C)(C)C)cn3)c(F)c2)C(=O)O1 | > 16 | > 16 | 1 (≈ 2.31 µM) | 2 (≈ 4.61 µM) | 8 (≈ 18.5 µM) | 8 (≈ 18.5 µM) | 4 (≈ 9.23 µM)
CC(=O)NC[C@H]1CN(c2ccc(-n3cc(NC(C)=O)cn3)c(F)c2)C(=O)O1 | > 16 | > 16 | 1 (≈ 2.66 µM) | 2 (≈ 5.33 µM) | 16 (≈ 42.6 µM) | > 16 | 16 (≈ 42.6 µM)
CNC(=O)c1cnn(-c2ccc(N3C[C@H](CNC(C)=O)OC3=O)cc2F)c1 | > 16 | 16 (≈ 42.6 µM) | 0.5 (≈ 1.33 µM) | 2 (≈ 5.33 µM) | 16 (≈ 42.6 µM) | > 16 | 
CC(=O)NC[C@H]1CN(c2ccc(-n3cc(CO)nn3)c(F)c2)C(=O)O1 | 4 (≈ 11.5 µM) | 2 (≈ 5.73 µM) | 0.25 (≈ 0.716 µM) | 0.5 (≈ 1.43 µM) | 2 (≈ 5.73 µM) | 4 (≈ 11.5 µM) | 4 (≈ 11.5 µM)
C#Cc1cnn(-c2ccc(N3C[C@H](CNC(C)=O)OC3=O)cc2F)c1 | > 16 | 8 (≈ 23.4 µM) | 0.5 (≈ 1.46 µM) | 1 (≈ 2.92 µM) | 2 (≈ 5.84 µM) | 2 (≈ 5.84 µM) | 2 (≈ 5.84 µM)
CC(=O)NC[C@H]1CN(c2ccc(-n3ccc(=O)[nH]3)c(F)c2)C(=O)O1 | 16 (≈ 47.9 µM) | 8 (≈ 23.9 µM) | 1 (≈ 2.99 µM) | 1 (≈ 2.99 µM) | 8 (≈ 23.9 µM) | 8 (≈ 23.9 µM) | 8 (≈ 23.9 µM)
CC(=O)NC[C@H]1CN(c2ccc(-n3cnc(C(N)=O)n3)c(F)c2)C(=O)O1 | > 16 | 16 (≈ 44.2 µM) | 2 (≈ 5.52 µM) | 16 (≈ 44.2 µM) | > 16 | > 16 | 

Compound | MIC (Haemophilus influenzae) [µg/mL] | MIC (Moraxella catarrhalis) [µg/mL] | MIC (Streptococcus pneumoniae) [µg/mL] | MIC [1] [µg/mL] | MIC (Enterococcus faecalis) [µg/mL] | MIC (Staphylococcus aureus [2]) [µg/mL] | MIC (Staphylococcus aureus [3]) [µg/mL]
CC(=O)NC[C@H]1CN(c2ccc(-n3cnc(C=O)n3)c(F)c2)C(=O)O1 | 8 (≈ 23 µM) | 8 (≈ 23 µM) | 0.5 (≈ 1.44 µM) | 0.5 (≈ 1.44 µM) | 4 (≈ 11.5 µM) | 4 (≈ 11.5 µM) | 2 (≈ 5.76 µM)
CC(=O)NC[C@H]1CN(c2ccc(-n3cnc(C)n3)c(F)c2)C(=O)O1 | > 16 | 16 (≈ 48 µM) | 1 (≈ 3 µM) | 2 (≈ 6 µM) | 8 (≈ 24 µM) | 8 (≈ 24 µM) | 4 (≈ 12 µM)
CC(=O)NC[C@H]1CN(c2ccc(-n3ccc(NC(C)=O)n3)c(F)c2)C(=O)O1 | > 16 | > 16 | 0.5 (≈ 1.33 µM) | 2 (≈ 5.33 µM) | 4 (≈ 10.7 µM) | 8 (≈ 21.3 µM) | 8 (≈ 21.3 µM)
CC(=O)NC[C@H]1CN(c2ccc(-n3nccn3)c(F)c2)C(=O)O1 | > 16 | > 16 | 1 (≈ 3.13 µM) | 1 (≈ 3.13 µM) | 4 (≈ 12.5 µM) | 4 (≈ 12.5 µM) | 2 (≈ 6.26 µM)
CNC(=O)c1cn(-c2ccc(N3C[C@H](CNC(C)=O)OC3=O)cc2F)nn1 | > 16 | > 16 | 1 (≈ 2.66 µM) | 2 (≈ 5.31 µM) | 8 (≈ 21.3 µM) | 8 (≈ 21.3 µM) | 4 (≈ 10.6 µM)
CCOC(=O)CCc1ccn(-c2ccc(N3C[C@H](CNC(C)=O)OC3=O)cc2F)c1 | > 16 | 2 (≈ 4.79 µM) | 0.5 (≈ 1.2 µM) | 1 (≈ 2.4 µM) | 2 (≈ 4.79 µM) | 4 (≈ 9.58 µM) | 4 (≈ 9.58 µM)
CC(=O)NC[C@H]1CN(c2ccc(-n3ccc(OC(C)=O)n3)c(F)c2)C(=O)O1 | 16 (≈ 42.5 µM) | 8 (≈ 21.3 µM) | 1 (≈ 2.66 µM) | 1 (≈ 2.66 µM) | 8 (≈ 21.3 µM) | 8 (≈ 21.3 µM) | 8 (≈ 21.3 µM)
COc1ccn(-c2ccc(N3C[C@H](CNC(C)=O)OC3=O)cc2F)n1 | 16 (≈ 45.9 µM) | 16 (≈ 45.9 µM) | 2 (≈ 5.74 µM) | 2 (≈ 5.74 µM) | 16 (≈ 45.9 µM) | 8 (≈ 23 µM) | 8 (≈ 23 µM)
CC(=O)NC[C@H]1CN(c2ccc(-n3ccc(C(C)O)c3)c(F)c2)C(=O)O1 (stereo not given in full) | > 16 | > 16 | 2 (≈ 5.53 µM) | 4 (≈ 11.1 µM) | 8 (≈ 22.1 µM) | 16 (≈ 44.3 µM) | 16 (≈ 44.3 µM)
CO/N=C(/C)c1ccn(-c2ccc(N3C[C@H](CNC(C)=O)OC3=O)cc2F)c1 | > 16 | 8 (≈ 20.6 µM) | 0.5 (≈ 1.29 µM) | 1 (≈ 2.57 µM) | 2 (≈ 5.15 µM) | 4 (≈ 10.3 µM) | 2 (≈ 5.15 µM)
CC(=O)NC[C@H]1CN(c2ccc(-n3cc(I)cn3)c(F)c2)C(=O)O1 | > 16 | 8 (≈ 18 µM) | 0.5 (≈ 1.13 µM) | 1 (≈ 2.25 µM) | 2 (≈ 4.5 µM) | 2 (≈ 4.5 µM) | 2 (≈ 4.5 µM)
CC(=O)NC[C@H]1CN(c2ccc(-n3cnc(CO)n3)c(F)c2)C(=O)O1 | 16 (≈ 45.8 µM) | 8 (≈ 22.9 µM) | 1 (≈ 2.86 µM) | 2 (≈ 5.73 µM) | 16 (≈ 45.8 µM) | 16 (≈ 45.8 µM) | 16 (≈ 45.8 µM)
CC(=O)NC[C@H]1CN(c2ccc(-n3cnc(NC(=O)Cc4ccccc4)n3)c(F)c2)C(=O)O1 | > 16 | > 16 | 2 (≈ 4.42 µM) | > 16 | > 16 | > 16 | 
CC(=O)NC[C@H]1CN(c2ccc(-n3cnc(N)n3)c(F)c2)C(=O)O1 | > 16 | 16 (≈ 47.9 µM) | 1 (≈ 2.99 µM) | 2 (≈ 5.98 µM) | 16 (≈ 47.9 µM) | 8 (≈ 23.9 µM) | 4 (≈ 12 µM)
CC(=O)NC[C@H]1CN(c2ccc(-n3cc(C(N)=O)nn3)c(F)c2)C(=O)O1 | > 16 | 8 (≈ 22.1 µM) | 0.5 (≈ 1.38 µM) | 1 (≈ 2.76 µM) | 8 (≈ 22.1 µM) | 4 (≈ 11 µM) | 4 (≈ 11 µM)
CC(=O)NC[C@H]1CN(c2ccc(-n3ccc(N)n3)c(F)c2)C(=O)O1 | 16 (≈ 48 µM) | 16 (≈ 48 µM) | 0.5 (≈ 1.5 µM) | 1 (≈ 3 µM) | 4 (≈ 12 µM) | 2 (≈ 6 µM) | 4 (≈ 12 µM)
CC(=O)NC[C@H]1CN(c2ccc(-n3cnc(C#N)n3)c(F)c2)C(=O)O1 | 16 (≈ 46.5 µM) | 16 (≈ 46.5 µM) | 1 (≈ 2.9 µM) | 2 (≈ 5.81 µM) | 4 (≈ 11.6 µM) | 4 (≈ 11.6 µM) | 2 (≈ 5.81 µM)
COC(=O)c1ncn(-c2ccc(N3C[C@H](CNC(C)=O)OC3=O)cc2F)n1 | > 16 | > 16 | 4 (≈ 10.6 µM) | 4 (≈ 10.6 µM) | > 16 | > 16 | 
CC(=O)NC[C@H]1CN(c2ccc(-n3cnc(C#N)c3)c(F)c2)C(=O)O1 | 8 (≈ 23.3 µM) | 4 (≈ 11.7 µM) | 0.25 (≈ 0.728 µM) | 0.5 (≈ 1.46 µM) | 2 (≈ 5.83 µM) | 4 (≈ 11.7 µM) | 4 (≈ 11.7 µM)
CC(=O)NC[C@H]1CN(c2ccc(-n3ccc(C(F)(F)F)n3)c(F)c2)C(=O)O1 | > 16 | > 16 | 1 (≈ 2.59 µM) | 2 (≈ 5.18 µM) | 8 (≈ 20.7 µM) | 4 (≈ 10.4 µM) | 4 (≈ 10.4 µM)
